Measured values reported in the supplement of paper PMC10627819.

How the values were obtained:
[1] = system: B. subtilis 168; assay: Bliss interaction score (quartile over a dose matrix) (fitness difference); higher = more antagonism (negative = synergy)
In short: (§1)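 Growth in each well was taken as OD595 at entry into stationary phase. Dividing by the plate's robust no-drug mean and capping at 1 gave fitness, and single-drug fitness was inferred from the combination data. The Bliss score, observed minus product-expected fitness, is summarised by quartiles over technical, biological and donor/recipient replicates.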

[2] = system: S. aureus Newman; assay: as above
In short: as §1

[3] = system: S. pneumoniae D39V; assay: as above
In short: as §1

[4] = system: S. aureus DSM 20231; assay: as above
In short: as §1

[5] = system: S. aureus Newman; assay: fitness (endpoint OD595 vs no drug) (fraction); higher = more growth
In short: (§2)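 Fitness expresses the optical density reached at the stationary-phase transition as a fraction of the robust mean of no-drug control wells. It is capped at 1. Measurements were OD595 every 30 min for 14 h at 37 °C after inoculation of 384-well plates at OD595 0.01 (30 µl, or 55 µl for S. pneumoniae), minus the first reading.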

[6] = system: S. pneumoniae D39V; assay: as above
In short: as §2

[7] = system: S. aureus DSM 20231; assay: as above
In short: as §2
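For Bliss interaction score (quartile over a dose matrix) in this document: first quartile when negative (synergy) and third quartile when positive (antagonism).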

CCN(CC)CCOC(=O)c1ccc(N)cc1 [Procaine] + Cn1nnc(-c2ccc(-c3ccc(N4C[C@H](CO)OC4=O)cc3F)cn2)n1 [Tedizolid]
Details	Bliss interaction score
[1]	-0.0545
[2]	0.0692
[3]	-0.0797
[4]	-0.0772

fitness
Details	first compound 85.5 µg/mL	first compound 171 µg/mL	first compound 342 µg/mL
[5], partner 0.0625 µg/mL	≥ 1	0.972	0.972
[5], partner 0.125 µg/mL	0.969	0.939	0.951
[6], partner 0.03125 µg/mL	0.989	0.975	0.97
[6], partner 0.0625 µg/mL	0.954	0.943	0.973
[6], partner 0.125 µg/mL	0.803	0.862	0.796
[7], partner 0.0625 µg/mL	0.789	0.887	0.81
[7], partner 0.25 µg/mL	0.067	0.0661	0.0739

fitness, [6], one replicate
Details	first compound 85.5 µg/mL	first compound 171 µg/mL	first compound 342 µg/mL
partner 0.25 µg/mL	0.67	0.744	0.695
partner 0.5 µg/mL	0.282	0.311	0.353

CC1(C)S[C@@H]2[C@H](NC(=O)[C@H](N)c3ccc(O)cc3)C(=O)N2[C@H]1C(=O)O [Amoxicillin] + Cc1ncc([N+](=O)[O-])n1CCO [Metronidazole]
Details	Bliss interaction score
[1]	0.0817
[2]	0.0677
[3]	-0.0259
[4]	0.0885

Details	fitness
[5], first compound 0.0625 µg/mL, partner 0.625 µg/mL	0.835
[5], first compound 0.0625 µg/mL, partner 0.781 µg/mL	0.922
[5], first compound 0.0625 µg/mL, partner 1.25 µg/mL	0.906
[5], first compound 0.0625 µg/mL, partner 1.562 µg/mL	0.917
[5], first compound 0.0625 µg/mL, partner 2.5 µg/mL	0.87
[5], first compound 0.0625 µg/mL, partner 3.124 µg/mL	0.913
[5], first compound 0.125 µg/mL, partner 0.625 µg/mL	0.839
[5], first compound 0.125 µg/mL, partner 0.781 µg/mL	0.952
[5], first compound 0.125 µg/mL, partner 1.25 µg/mL	0.905
[5], first compound 0.125 µg/mL, partner 1.562 µg/mL	0.972
[5], first compound 0.125 µg/mL, partner 2.5 µg/mL	0.836
[5], first compound 0.125 µg/mL, partner 3.124 µg/mL	0.957
[5], first compound 0.25 µg/mL, partner 0.625 µg/mL	0.799
[5], first compound 0.25 µg/mL, partner 0.781 µg/mL	0.945
[5], first compound 0.25 µg/mL, partner 1.25 µg/mL	0.789
[5], first compound 0.25 µg/mL, partner 1.562 µg/mL	0.951
[5], first compound 0.25 µg/mL, partner 2.5 µg/mL	0.816
[5], first compound 0.25 µg/mL, partner 3.124 µg/mL	0.929
[6], first compound 0.0008 µg/mL, partner 1.073 µg/mL	0.958
[6], first compound 0.0008 µg/mL, partner 2.145 µg/mL	0.946
[6], first compound 0.0008 µg/mL, partner 4.29 µg/mL	0.919
[6], first compound 0.0015 µg/mL, partner 1.073 µg/mL	0.972
[6], first compound 0.0015 µg/mL, partner 1.25 µg/mL	0.988
[6], first compound 0.0015 µg/mL, partner 2.145 µg/mL	0.926
[6], first compound 0.0015 µg/mL, partner 2.5 µg/mL	≥ 1
[6], first compound 0.0015 µg/mL, partner 4.29 µg/mL	0.941
[6], first compound 0.0015 µg/mL, partner 5 µg/mL	0.995
[6], first compound 0.003 µg/mL, partner 1.073 µg/mL	0.938
[6], first compound 0.003 µg/mL, partner 1.25 µg/mL	0.97
[6], first compound 0.003 µg/mL, partner 2.145 µg/mL	0.914
[6], first compound 0.003 µg/mL, partner 2.5 µg/mL	0.989
[6], first compound 0.003 µg/mL, partner 4.29 µg/mL	0.93
[6], first compound 0.003 µg/mL, partner 5 µg/mL	0.946
[7], first compound 0.0625 µg/mL, partner 0.625 µg/mL	0.588
[7], first compound 0.125 µg/mL, partner 1.25 µg/mL	0.428
[7], first compound 0.5 µg/mL, partner 0.625 µg/mL	0.0108
[7], first compound 0.5 µg/mL, partner 1.25 µg/mL	0.0138
[7], first compound 0.5 µg/mL, partner 2.5 µg/mL	0.0153

fitness, [6], one replicate
Details	partner 1.25 µg/mL	partner 2.5 µg/mL	partner 5 µg/mL
first compound 0.0008 µg/mL	≥ 1	≥ 1	≥ 1
first compound 0.006 µg/mL	0.561	0.587	0.574

CO/N=C(\C(=O)N[C@@H]1C(=O)N2C(C(=O)[O-])=C(C[N+]3(C)CCCC3)CS[C@H]12)c1csc(N)n1 [Cefepime] + CN(N=O)C(=O)N[C@@H](C=O)[C@@H](O)[C@H](O)[C@H](O)CO [Streptozotocin]
Details	Bliss interaction score
[1]	-0.0416
[2]	0.0304
[3]	-0.0319
[4]	-0.0779

fitness
Details	first compound 0.007 µg/mL	first compound 0.014 µg/mL	first compound 0.028 µg/mL	first compound 0.125 µg/mL	first compound 0.25 µg/mL	first compound 0.5 µg/mL
[5], partner 0.15 µg/mL	–	–	–	0.814	0.765	0.682
[5], partner 0.3 µg/mL	–	–	–	0.717	0.641	0.66
[5], partner 0.6 µg/mL	–	–	–	0.505	0.482	0.506
[6], partner 1.2 µg/mL	0.964	0.935	0.824	–	–	–
[6], partner 2.4 µg/mL	0.987	0.993	0.923	–	–	–
[6], partner 4.8 µg/mL	0.966	0.983	0.868	–	–	–
[7], partner 0.15 µg/mL	–	–	–	0.789	0.705	0.721
[7], partner 0.3 µg/mL	–	–	–	0.667	0.645	0.713
[7], partner 0.6 µg/mL	–	–	–	0.589	0.588	0.61

fitness, [6], one replicate
Details	first compound 0.0078 µg/mL	first compound 0.0155 µg/mL	first compound 0.031 µg/mL
partner 1.2 µg/mL	0.984	0.953	0.186
partner 2.4 µg/mL	≥ 1	0.937	0.289
partner 4.8 µg/mL	0.956	0.895	0.0426

CC1(C)S[C@@H]2[C@H](NC(=O)[C@H](N)c3ccc(O)cc3)C(=O)N2[C@H]1C(=O)O [Amoxicillin] + Cn1nnc(-c2ccc(-c3ccc(N4C[C@H](CO)OC4=O)cc3F)cn2)n1 [Tedizolid]
Details	Bliss interaction score
[1]	-0.0425
[2]	-0.0673
[3]	0.175
[4]	-0.0515

fitness
Details	partner 0.03125 µg/mL	partner 0.0625 µg/mL	partner 0.125 µg/mL	partner 0.25 µg/mL	partner 0.5 µg/mL
[5], first compound 0.0625 µg/mL	–	0.853	–	–	–
[5], first compound 0.125 µg/mL	–	0.807	–	–	–
[6], first compound 0.0008 µg/mL	0.961	0.966	0.781	–	–
[6], first compound 0.0015 µg/mL	0.949	0.94	0.788	0.692	0.306
[6], first compound 0.003 µg/mL	0.96	0.933	0.759	0.691	0.339
[7], first compound 0.0625 µg/mL	–	0.65	0.395	0.151	–
[7], first compound 0.125 µg/mL	–	–	0.184	0.0385	–
[7], first compound 0.25 µg/mL	–	0.0658	0.0466	0.0313	–

fitness, one replicate
Details	partner 0.0625 µg/mL	partner 0.125 µg/mL	partner 0.25 µg/mL	partner 0.5 µg/mL
[6], first compound 0.0008 µg/mL	–	–	0.7	0.335
[6], first compound 0.006 µg/mL	–	0.562	0.462	0.283
[7], first compound 0.5 µg/mL	0.015	0.0045	0.0057	–
